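Method: 48-hour compound exposure of cells in 96-well plates, five concentrations, linear interpolation of endpoints. TGI: total growth inhibition.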
Key:
Assay in all cases: NCI anticancer screen, dose series, 48 h
[1] = tested on: ACHN renal
[2] = tested on: CAKI-1 renal
[3] = tested on: A498 renal
[4] = tested on: SN12C renal
[5] = tested on: SW-620 colon
[6] = tested on: BT-549 breast
[7] = tested on: U251 CNS
[8] = tested on: UO-31 renal
[9] = tested on: UACC-257 melanoma
[10] = tested on: UACC-62 melanoma
[11] = tested on: EKVX NSCLC
[12] = tested on: HCT-15 colon
[13] = tested on: TK-10 renal
[14] = tested on: K-562 leukemia
[15] = tested on: SK-MEL-5 melanoma
[16] = tested on: SNB-19 CNS
[17] = tested on: NCI-H226 lung
[18] = tested on: PC-3 prostate
[19] = tested on: COLO 205 colon
[20] = tested on: RPMI-8226 leukemia

SMILES: CC(=O)O[C@H]1C(=O)[C@@]2(C)[C@H]([C@H](OC(=O)c3ccccc3)[C@]3(O)C[C@H](OC(=O)[C@H](OC(=O)OCCC(O)CO)[C@@H](NC(=O)c4ccccc4)c4ccccc4)C(C)=C1C3(C)C)[C@]1(OC(C)=O)CO[C@@H]1C[C@@H]2O (some centres undefined)
- TGI [1]: > 62.2 µM
- TGI [2]: 62.9 µM
- TGI [3]: 28.9 µM
- TGI [4]: 33.6 µM
- TGI [5]: > 55.8 µM
- TGI [6]: 19.1 µM
- TGI [7]: 19.2 µM
- TGI [8]: > 100 µM
- TGI [9]: 23.3 µM
- TGI [10]: 20.1 µM
- TGI [11]: > 100 µM
- TGI [12]: > 35.4 µM
- TGI [13]: > 44.6 µM
- TGI [14]: 49.8 µM
- TGI [15]: 0.613 µM
- TGI [16]: > 100 µM
- TGI [17]: < 0.01 µM
- TGI [18]: > 100 µM

SMILES: CC(=O)C1C(=O)C(=O)N(c2cccc(C)c2C)C1=O (centres undefined)
- TGI [1]: > 100 µM
- TGI [2]: > 100 µM
- TGI [4]: > 100 µM
- TGI [6]: > 100 µM
- TGI [8]: > 100 µM
- TGI [9]: > 100 µM
- TGI [10]: > 100 µM
- TGI [11]: > 100 µM
- TGI [13]: > 100 µM
- TGI [15]: > 100 µM
- TGI [16]: > 100 µM
- TGI [17]: > 100 µM
- TGI [19]: > 100 µM
- TGI [18]: > 100 µM

SMILES: C/C=C(C)/C=C/CC(C)CCC=C(C)C (centres undefined)
- TGI [1]: > 100 µM
- TGI [2]: > 100 µM
- TGI [3]: > 100 µM
- TGI [4]: > 100 µM
- TGI [5]: > 100 µM
- TGI [6]: > 100 µM
- TGI [7]: > 100 µM
- TGI [8]: > 100 µM
- TGI [9]: > 100 µM
- TGI [10]: > 100 µM
- TGI [11]: > 100 µM
- TGI [12]: > 100 µM
- TGI [13]: > 100 µM
- TGI [14]: > 100 µM
- TGI [15]: > 100 µM
- TGI [16]: > 100 µM
- TGI [17]: > 100 µM
- TGI [19]: > 100 µM

SMILES: CC(=O)Oc1ccc2c(c1)Oc1cc(C(C)=O)ccc1C21OC(=O)c2ccccc21 (centres undefined)
- TGI [1]: > 100 µM
- TGI [2]: > 100 µM
- TGI [3]: > 100 µM
- TGI [4]: > 100 µM
- TGI [5]: > 100 µM
- TGI [6]: > 100 µM
- TGI [7]: > 100 µM
- TGI [8]: > 100 µM
- TGI [9]: > 100 µM
- TGI [10]: > 100 µM
- TGI [11]: > 100 µM
- TGI [12]: > 100 µM
- TGI [13]: > 100 µM
- TGI [14]: > 100 µM
- TGI [15]: > 100 µM
- TGI [20]: > 100 µM
- TGI [16]: > 100 µM
- TGI [19]: > 100 µM
- TGI [18]: > 100 µM

SMILES: COc1c(C)c(C/C=C(\C)CCCCO[Si](C(C)C)(C(C)C)C(C)C)c(OC)c2ccccc12
- TGI [1]: > 100 µM
- TGI [2]: > 100 µM
- TGI [4]: > 100 µM
- TGI [5]: > 100 µM
- TGI [6]: > 100 µM
- TGI [7]: > 100 µM
- TGI [8]: > 100 µM
- TGI [9]: > 100 µM
- TGI [10]: > 100 µM
- TGI [11]: > 100 µM
- TGI [12]: > 100 µM
- TGI [13]: > 100 µM
- TGI [14]: > 100 µM
- TGI [15]: > 100 µM
- TGI [16]: > 100 µM
- TGI [19]: > 100 µM
- TGI [18]: > 100 µM

SMILES: CN(NC(=O)c1ccco1)C1=NCCN1
- TGI [1]: > 100 µM
- TGI [3]: > 100 µM
- TGI [4]: > 100 µM
- TGI [5]: > 100 µM
- TGI [6]: > 100 µM
- TGI [7]: > 100 µM
- TGI [8]: > 100 µM
- TGI [9]: > 100 µM
- TGI [10]: > 100 µM
- TGI [11]: > 100 µM
- TGI [12]: > 100 µM
- TGI [13]: > 100 µM
- TGI [14]: > 100 µM
- TGI [15]: > 100 µM
- TGI [20]: > 100 µM
- TGI [16]: > 100 µM
- TGI [17]: > 100 µM
- TGI [19]: > 100 µM
- TGI [18]: > 100 µM

SMILES: O=c1cc(-c2ccccc2)[nH]c2cc(F)c(F)cc12
- TGI [1]: > 35.5 µM
- TGI [2]: > 100 µM
- TGI [3]: > 62.8 µM
- TGI [4]: > 100 µM
- TGI [5]: > 100 µM
- TGI [7]: > 58.6 µM
- TGI [8]: > 100 µM
- TGI [9]: > 100 µM
- TGI [10]: > 50.1 µM
- TGI [11]: > 100 µM
- TGI [12]: > 100 µM
- TGI [13]: > 100 µM
- TGI [14]: > 100 µM
- TGI [15]: 18.7 µM
- TGI [20]: > 100 µM
- TGI [16]: > 50.6 µM
- TGI [17]: > 26.4 µM
- TGI [19]: 34.7 µM
- TGI [18]: > 100 µM

SMILES: Cc1cc(C)nc(NS(=O)(=O)c2ccc(Nc3nncc(=O)n3N)cc2)n1
- TGI [1]: > 100 µM
- TGI [2]: 29.5 µM
- TGI [3]: > 100 µM
- TGI [5]: 44.2 µM
- TGI [6]: 32.6 µM
- TGI [7]: 31.5 µM
- TGI [8]: 33.9 µM
- TGI [9]: 43.9 µM
- TGI [10]: 51.2 µM
- TGI [11]: 62.7 µM
- TGI [12]: 28.8 µM
- TGI [14]: 43.9 µM
- TGI [15]: 33.1 µM
- TGI [20]: 49.8 µM
- TGI [16]: 83 µM
- TGI [19]: > 100 µM
- TGI [18]: 54.9 µM

SMILES: O=[N+]([O-])C(Cl)C(Cl)C(Cl)=C(Cl)Cl (centres undefined)
- TGI [1]: 31.1 µM
- TGI [2]: 33.2 µM
- TGI [3]: > 100 µM
- TGI [4]: > 57.7 µM
- TGI [5]: 38.3 µM
- TGI [6]: 43.9 µM
- TGI [7]: > 100 µM
- TGI [8]: > 31.6 µM
- TGI [9]: 41.9 µM
- TGI [10]: 32.9 µM
- TGI [11]: > 100 µM
- TGI [12]: 39.7 µM
- TGI [13]: 39.4 µM
- TGI [14]: 85.2 µM
- TGI [15]: 24.4 µM
- TGI [16]: > 100 µM
- TGI [17]: > 100 µM
- TGI [19]: 34 µM
- TGI [18]: > 57.4 µM

SMILES: COc1cc(N=CN(C)C)c2ncccc2c1
- TGI [1]: > 100 µM
- TGI [2]: > 100 µM
- TGI [3]: > 100 µM
- TGI [4]: > 100 µM
- TGI [6]: > 100 µM
- TGI [7]: > 100 µM
- TGI [8]: > 100 µM
- TGI [9]: > 100 µM
- TGI [10]: > 100 µM
- TGI [11]: > 100 µM
- TGI [12]: > 100 µM
- TGI [13]: > 100 µM
- TGI [14]: 47 µM
- TGI [15]: > 100 µM
- TGI [20]: > 100 µM
- TGI [16]: > 100 µM
- TGI [17]: > 100 µM
- TGI [19]: > 100 µM
- TGI [18]: > 100 µM

SMILES: Cc1ccc(S(=O)(=O)N2CCN(S(=O)(=O)c3ccc(C)cc3)Cc3ccccc3C2)cc1
- TGI [1]: > 100 µM
- TGI [2]: > 100 µM
- TGI [4]: > 100 µM
- TGI [5]: > 100 µM
- TGI [6]: > 100 µM
- TGI [8]: > 100 µM
- TGI [9]: > 100 µM
- TGI [10]: 36.7 µM
- TGI [11]: > 100 µM
- TGI [12]: > 100 µM
- TGI [13]: > 100 µM
- TGI [14]: > 100 µM
- TGI [15]: > 100 µM
- TGI [20]: > 100 µM
- TGI [16]: > 100 µM
- TGI [17]: > 100 µM
- TGI [19]: > 100 µM

SMILES: C=CCCCC1CCCNC1=O (centres undefined)
- TGI [1]: > 100 µM
- TGI [2]: > 100 µM
- TGI [3]: > 100 µM
- TGI [4]: > 100 µM
- TGI [5]: > 100 µM
- TGI [6]: > 100 µM
- TGI [7]: > 100 µM
- TGI [8]: > 100 µM
- TGI [9]: > 100 µM
- TGI [10]: > 100 µM
- TGI [11]: > 100 µM
- TGI [12]: > 100 µM
- TGI [13]: > 100 µM
- TGI [14]: > 100 µM
- TGI [15]: > 100 µM
- TGI [20]: > 100 µM
- TGI [16]: > 100 µM
- TGI [17]: > 100 µM
- TGI [18]: > 100 µM

SMILES: COc1ccc2cc(C(C)C(O)c3cc(F)c(F)c(F)c3F)ccc2c1 (centres undefined)
- TGI [1]: > 100 µM
- TGI [3]: > 100 µM
- TGI [4]: > 100 µM
- TGI [5]: > 100 µM
- TGI [6]: > 100 µM
- TGI [7]: > 100 µM
- TGI [8]: > 100 µM
- TGI [9]: > 100 µM
- TGI [10]: > 100 µM
- TGI [11]: > 100 µM
- TGI [12]: > 100 µM
- TGI [13]: > 100 µM
- TGI [14]: > 100 µM
- TGI [15]: > 100 µM
- TGI [20]: > 100 µM
- TGI [16]: > 100 µM
- TGI [17]: > 100 µM
- TGI [19]: > 100 µM
- TGI [18]: > 100 µM

Source: PubChem BioAssay (NCI)
